Values belong to the compound of their own block, whether it stands above or below them.
Key:
AKT isoforms = settings: cited from earlier work
[1] = Biopharmaceutics Classification System classification; assay type: physicochemical; settings: BCS Class IV
MCF7 cells = assay: Dose-Response Matrix Assay (cell viability, Cell-Titer Glo, Combenefit synergy analysis); assay type: cell-based; settings: 8-point curve 100 to 0.046 nM, Day 5
Procedure: Cells were seeded at 2×10^3 cells in 200 μl of media per well in 96 well plates and incubated overnight at 37 °C. […] At Day 5 cell viability was measured using Cell-Titer Glo and CTG data were analyzed with the Combenefit Software (5).

ER = biological target: T1, ER (Homo sapiens, UniProt P03372); assay: degradation of the ER
T1 construct: cells or constructs not described in excerpts
T1 sequence (P03372 1-595): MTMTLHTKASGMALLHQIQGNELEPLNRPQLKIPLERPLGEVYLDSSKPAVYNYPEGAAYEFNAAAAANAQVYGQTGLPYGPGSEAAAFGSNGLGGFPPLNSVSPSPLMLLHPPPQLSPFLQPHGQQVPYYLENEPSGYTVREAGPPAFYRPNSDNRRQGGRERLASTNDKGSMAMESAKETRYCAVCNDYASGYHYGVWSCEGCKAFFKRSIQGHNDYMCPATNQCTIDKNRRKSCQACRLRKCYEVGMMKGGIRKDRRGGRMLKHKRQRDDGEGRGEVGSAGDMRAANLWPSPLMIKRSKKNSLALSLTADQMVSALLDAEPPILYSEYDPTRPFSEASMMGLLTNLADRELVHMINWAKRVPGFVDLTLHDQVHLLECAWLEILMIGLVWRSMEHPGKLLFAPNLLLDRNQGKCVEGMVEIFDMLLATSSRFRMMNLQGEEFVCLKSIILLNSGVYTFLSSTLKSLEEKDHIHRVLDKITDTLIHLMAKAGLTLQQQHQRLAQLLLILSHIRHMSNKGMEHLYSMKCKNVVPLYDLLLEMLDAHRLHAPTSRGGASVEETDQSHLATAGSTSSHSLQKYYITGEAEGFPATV

[2] = exposure of epimer Compound C relative to Compound A (preclinical data); assay type: in vivo

Compound: Cn1ncc(Cl)c1-c1cc(C(=O)N[C@H](CN)Cc2cccc(F)c2)sc1Cl [Afuresertib, N-[(2S)-1-amino-3-(3-fluorophenyl)propan-2-yl]-5-chloro-4-(4-chloro-2-methyl-3-pyrazolyl)-2-thiophenecarboxamide]
mode of AKT kinase inhibition (AKT isoforms): reversible, ATP-competitive | pan-AKT kinase inhibition potency (AKT isoforms; reversible, ATP-competitive): low-nanomolar

Compound: NC1(C(=O)N[C@@H](CCO)c2ccc(Cl)cc2)CCN(c2ncnc3[nH]ccc23)CC1 [Capivasertib, 4-amino-N-[(1S)-1-(4-chlorophenyl)-3-hydroxypropyl]-1-(7H-pyrrolo[2,3-d]pyrimidin-4-yl)piperidine-4-carboxamide]
binding to and inhibition of AKT isoforms (AKT isoforms): binds to and inhibits all AKT isoforms

permeability [1]: low permeability | solubility [1]: low solubility
Compound: O=C1CC[C@H](N2Cc3cc(N4CCN(CC5CCN(c6ccc([C@@H]7c8ccc(O)cc8CC[C@@H]7c7ccccc7)cc6)CC5)CC4)ccc3C2=O)C(=O)N1 [Compound A, (S)-3-(5-(4-((1-(4-((1R,2S)-6-hydroxy-2-phenyl-1,2,3,4-tetrahydronaphthalen-1-yl)phenyl)piperidin-4-yl)methyl)piperazin-1-yl)-1-oxoisoindolin-2-yl)piperidine-2,6-dione]
synergy on cell viability (MCF7 cells; combination with afuresertib): evidence of synergy | synergy on cell viability (MCF7 cells; combination with capivasertib): evidence of synergy

degradation of the ER (ER): does not degrade the ER | exposure of Compound C compared to Compound A [2]: < 26%
Compound: O=C1CC[C@@H](N2Cc3cc(N4CCN(CC5CCN(c6ccc([C@@H]7c8ccc(O)cc8CC[C@@H]7c7ccccc7)cc6)CC5)CC4)ccc3C2=O)C(=O)N1 [Compound C]

— US20260345590A1, “COMBINATIONS OF ESTROGEN RECEPTOR DEGRADERS AND AKT INHIBITORS” (Arvinas Operations, Inc., priority 2023, published 2026)
